pIC50: −log10 of the molar value.
Test: Inhibitory activity against Protein kinase C beta isoform (PKC) from pig spleen.

Structure (SMILES)	pIC50
N=C(N)NCCC[C@H](NC(=O)[C@H](CCCNC(=N)N)NC(=O)[C@H](CCCNC(=N)N)NC(=O)[C@H](CCCNC(=N)N)NC(=O)[C@H](CCCNC(=N)N)NC(=O)[C@H](CCCNC(=N)N)NC(=O)CNC(=O)[C@H]1OC(n2cnc3c(N)ncnc32)[C@H](O)[C@@H]1O)C(=O)O (stereo partly specified)	5.00
N=C(N)NCCC[C@H](NC(=O)[C@H](CCCNC(=N)N)NC(=O)[C@H](CCCNC(=N)N)NC(=O)[C@H](CCCNC(=N)N)NC(=O)[C@H](CCCNC(=N)N)NC(=O)[C@H](CCCNC(=N)N)NC(=O)CCNC(=O)[C@H]1OC(n2cnc3c(N)ncnc32)[C@H](O)[C@@H]1O)C(=O)O (stereo partly specified)	5.52
C[C@H](NC(=O)CCNC(=O)CCNC(=O)[C@H]1OC(n2cnc3c(N)ncnc32)[C@H](O)[C@@H]1O)C(=O)N[C@@H](CCCNC(=N)N)C(=O)N[C@@H](CCCNC(=N)N)C(=O)N[C@@H](CCCNC(=N)N)C(=O)N[C@@H](CCCNC(=N)N)C(=O)N[C@@H](CCCNC(=N)N)C(=O)N[C@@H](CCCNC(=N)N)C(=O)O (stereo partly specified)	5.55
N=C(N)NCCC[C@H](NC(=O)[C@H](CCCNC(=N)N)NC(=O)[C@H](CCCNC(=N)N)NC(=O)[C@H](CCCNC(=N)N)NC(=O)[C@H](CCCNC(=N)N)NC(=O)[C@H](CCCNC(=N)N)NC(=O)CCCNC(=O)[C@H]1OC(n2cnc3c(N)ncnc32)[C@H](O)[C@@H]1O)C(=O)O (stereo partly specified)	5.82
C[C@H](NC(=O)C[C@H](NC(=O)C[C@H](NC(=O)[C@H]1O[C@@H](n2cnc3c(N)ncnc32)[C@H](O)[C@@H]1O)C(=O)O)C(=O)O)C(=O)N[C@@H](CCCNC(=N)N)C(=O)N[C@@H](CCCNC(=N)N)C(=O)N[C@@H](CCCNC(=N)N)C(=O)N[C@@H](CCCNC(=N)N)C(=O)N[C@@H](CCCNC(=N)N)C(=O)N[C@@H](CCCNC(=N)N)C(=O)O	4.57
CC(=O)NCCCCCC(=O)N[C@@H](CCCN=C(N)N)C(=O)N[C@@H](CCCNC(=N)N)C(=O)N[C@@H](CCCNC(=N)N)C(=O)N[C@@H](CCCNC(=N)N)C(=O)N[C@@H](CCCNC(=N)N)C(=O)N[C@@H](CCCN=C(N)N)C(=O)O [(R)-2-{(R)-2-[2-((R)-2-{(R)-2-[2-(6-Acetylamino-hexanoylamino)-5-guanidino-pentanoylamino]-5-guanidino-pentanoylamino}-5-guanidino-pentanoylamino)-5-guanidino-pentanoylamino]-5-guanidino-pentanoylamino}-5-guanidino-pentanoic acid]	< 4.00

Reference: BindingDB's records for doi:10.1016/s0960-894x(99)00210-3 (Tartu University, 1999)
